# Calls of active or inactive are those of the source. No cut-off for these calls is given here.
# Experiments:
# [1] = target: Serine/threonine-protein kinase PAK 5 (Homo sapiens) (UniProt Q9P286); experiment: Inhibition of PAK7 (unknown origin) at 10 uM by Ambit Kinomescan binding assay
# [2] = Inhibition of […] ATP labeling site in human Huh-7 cells at 10 uM by KiNativ Profiling analysis relative to control; conditions: condition cancer
# [3] = target: T1, Interleukin-1 receptor-associated kinase 4 (Homo sapiens) (UniProt Q9NWZ3); experiment: Inhibition of IRAK4 K2 labeling site in human Huh-7 cells at 10 uM by KiNativ Profiling analysis relative to control; assay type: cell-based
# T1 sequence (whole entry): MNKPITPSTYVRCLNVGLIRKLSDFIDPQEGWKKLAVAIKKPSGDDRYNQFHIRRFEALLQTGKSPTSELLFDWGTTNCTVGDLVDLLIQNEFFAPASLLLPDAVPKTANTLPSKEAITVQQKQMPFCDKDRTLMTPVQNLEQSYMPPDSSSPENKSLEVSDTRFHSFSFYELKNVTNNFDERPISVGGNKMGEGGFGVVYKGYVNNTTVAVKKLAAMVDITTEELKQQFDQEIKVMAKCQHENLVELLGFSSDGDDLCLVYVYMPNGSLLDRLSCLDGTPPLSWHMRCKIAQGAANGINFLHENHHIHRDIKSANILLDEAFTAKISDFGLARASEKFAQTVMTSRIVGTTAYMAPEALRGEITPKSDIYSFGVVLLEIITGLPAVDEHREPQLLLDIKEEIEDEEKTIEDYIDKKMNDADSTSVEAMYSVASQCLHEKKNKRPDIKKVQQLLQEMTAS
# [4] = target: T2, Dual specificity mitogen-activated protein kinase kinase 5 (Homo sapiens) (UniProt Q13163); experiment: Inhibition of MAP2K5 Lys2 labeling site in human A-375 cells at 5 uM by KiNativ Profiling analysis relative to control; assay type: cell-based
# T2 sequence (whole entry): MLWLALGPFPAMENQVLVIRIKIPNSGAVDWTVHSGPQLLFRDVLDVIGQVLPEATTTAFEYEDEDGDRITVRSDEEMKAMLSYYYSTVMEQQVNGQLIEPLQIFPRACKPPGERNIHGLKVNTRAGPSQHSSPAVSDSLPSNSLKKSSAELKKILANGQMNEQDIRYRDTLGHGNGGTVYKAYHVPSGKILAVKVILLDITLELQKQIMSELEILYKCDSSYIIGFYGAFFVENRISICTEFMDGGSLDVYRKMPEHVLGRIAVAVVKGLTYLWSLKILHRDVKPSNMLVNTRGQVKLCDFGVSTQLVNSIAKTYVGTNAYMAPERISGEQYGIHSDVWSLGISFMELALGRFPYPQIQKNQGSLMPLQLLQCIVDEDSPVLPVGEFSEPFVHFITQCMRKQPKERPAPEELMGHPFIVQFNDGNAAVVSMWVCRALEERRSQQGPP
# [5] = target: T3, EKC/KEOPS complex subunit TP53RK (Homo sapiens) (UniProt Q96S44); experiment: Inhibition of PRPK ATP Loop labeling site in human A-375 cells at 5 uM by KiNativ Profiling analysis relative to control; assay type: cell-based
# T3 sequence (whole entry): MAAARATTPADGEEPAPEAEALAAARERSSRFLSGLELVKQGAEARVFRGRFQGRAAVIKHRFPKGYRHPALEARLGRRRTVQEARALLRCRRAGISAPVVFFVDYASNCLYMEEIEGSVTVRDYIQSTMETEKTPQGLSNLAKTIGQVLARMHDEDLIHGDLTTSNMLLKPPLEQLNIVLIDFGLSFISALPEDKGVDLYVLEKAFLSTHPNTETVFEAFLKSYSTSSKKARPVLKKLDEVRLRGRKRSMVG
# [6] = target: Myosin light chain kinase (Homo sapiens) (UniProt Q32MK0); experiment: Inhibition of MLCK (unknown origin) at 10 uM by Ambit Kinomescan binding assay
# [7] = target: Serine/threonine-protein kinase B-raf (Homo sapiens, UniProt P15056); experiment: Inhibition of BRAF K2 labeling site in human Huh-7 cells at 10 uM by KiNativ Profiling analysis relative to control; assay type: cell-based
# [8] = Inhibition of p70S6K ATP Loop labeling site in human Huh-7 cells at 1 uM by KiNativ Profiling analysis relative to control; conditions: condition cancer
# [9] = target: MAP/microtubule affinity-regulating kinase 3 (Homo sapiens) (UniProt P27448); experiment: Inhibition of MARK3 Lys2 labeling site in human Huh-7 cells at 1 uM by KiNativ Profiling analysis relative to control; assay type: cell-based
# [10] = target: Cyclin-dependent kinase 2 (Homo sapiens) (UniProt P24941); experiment: Inhibition of CDK2 Lys1 labeling site in human Huh-7 cells at 1 uM by KiNativ Profiling analysis relative to control; assay type: cell-based
# [11] = target: Mitogen-activated protein kinase 7 (Homo sapiens) (UniProt Q13164); experiment: Inhibition of Erk5 Lys2 labeling site in human Huh-7 cell lysate at 1 uM by KiNativ Profiling analysis relative to control; assay type: subcellular
# [12] = target: Serine/threonine-protein kinase 4 (Homo sapiens) (UniProt Q13043); experiment: Inhibition of MST1 Lys1 labeling site harbouring ETGQIVAIKQVPVESDLQEIIK in human Huh-7 cell lysate at 1 uM by KiNativ Profiling analysis relative to control
# [13] = target: Serine/threonine-protein kinase SMG1 (Homo sapiens) (UniProt Q96Q15); experiment: Inhibition of SMG1 ATP labeling site harbouring SYPYLFKGLEDLHLDER in human A-375 cells at 5 uM by KiNativ Profiling analysis relative to control; assay type: cell-based
# Sequence of Serine/threonine-protein kinase SMG1 (Homo sapiens) (Q96Q15 whole entry): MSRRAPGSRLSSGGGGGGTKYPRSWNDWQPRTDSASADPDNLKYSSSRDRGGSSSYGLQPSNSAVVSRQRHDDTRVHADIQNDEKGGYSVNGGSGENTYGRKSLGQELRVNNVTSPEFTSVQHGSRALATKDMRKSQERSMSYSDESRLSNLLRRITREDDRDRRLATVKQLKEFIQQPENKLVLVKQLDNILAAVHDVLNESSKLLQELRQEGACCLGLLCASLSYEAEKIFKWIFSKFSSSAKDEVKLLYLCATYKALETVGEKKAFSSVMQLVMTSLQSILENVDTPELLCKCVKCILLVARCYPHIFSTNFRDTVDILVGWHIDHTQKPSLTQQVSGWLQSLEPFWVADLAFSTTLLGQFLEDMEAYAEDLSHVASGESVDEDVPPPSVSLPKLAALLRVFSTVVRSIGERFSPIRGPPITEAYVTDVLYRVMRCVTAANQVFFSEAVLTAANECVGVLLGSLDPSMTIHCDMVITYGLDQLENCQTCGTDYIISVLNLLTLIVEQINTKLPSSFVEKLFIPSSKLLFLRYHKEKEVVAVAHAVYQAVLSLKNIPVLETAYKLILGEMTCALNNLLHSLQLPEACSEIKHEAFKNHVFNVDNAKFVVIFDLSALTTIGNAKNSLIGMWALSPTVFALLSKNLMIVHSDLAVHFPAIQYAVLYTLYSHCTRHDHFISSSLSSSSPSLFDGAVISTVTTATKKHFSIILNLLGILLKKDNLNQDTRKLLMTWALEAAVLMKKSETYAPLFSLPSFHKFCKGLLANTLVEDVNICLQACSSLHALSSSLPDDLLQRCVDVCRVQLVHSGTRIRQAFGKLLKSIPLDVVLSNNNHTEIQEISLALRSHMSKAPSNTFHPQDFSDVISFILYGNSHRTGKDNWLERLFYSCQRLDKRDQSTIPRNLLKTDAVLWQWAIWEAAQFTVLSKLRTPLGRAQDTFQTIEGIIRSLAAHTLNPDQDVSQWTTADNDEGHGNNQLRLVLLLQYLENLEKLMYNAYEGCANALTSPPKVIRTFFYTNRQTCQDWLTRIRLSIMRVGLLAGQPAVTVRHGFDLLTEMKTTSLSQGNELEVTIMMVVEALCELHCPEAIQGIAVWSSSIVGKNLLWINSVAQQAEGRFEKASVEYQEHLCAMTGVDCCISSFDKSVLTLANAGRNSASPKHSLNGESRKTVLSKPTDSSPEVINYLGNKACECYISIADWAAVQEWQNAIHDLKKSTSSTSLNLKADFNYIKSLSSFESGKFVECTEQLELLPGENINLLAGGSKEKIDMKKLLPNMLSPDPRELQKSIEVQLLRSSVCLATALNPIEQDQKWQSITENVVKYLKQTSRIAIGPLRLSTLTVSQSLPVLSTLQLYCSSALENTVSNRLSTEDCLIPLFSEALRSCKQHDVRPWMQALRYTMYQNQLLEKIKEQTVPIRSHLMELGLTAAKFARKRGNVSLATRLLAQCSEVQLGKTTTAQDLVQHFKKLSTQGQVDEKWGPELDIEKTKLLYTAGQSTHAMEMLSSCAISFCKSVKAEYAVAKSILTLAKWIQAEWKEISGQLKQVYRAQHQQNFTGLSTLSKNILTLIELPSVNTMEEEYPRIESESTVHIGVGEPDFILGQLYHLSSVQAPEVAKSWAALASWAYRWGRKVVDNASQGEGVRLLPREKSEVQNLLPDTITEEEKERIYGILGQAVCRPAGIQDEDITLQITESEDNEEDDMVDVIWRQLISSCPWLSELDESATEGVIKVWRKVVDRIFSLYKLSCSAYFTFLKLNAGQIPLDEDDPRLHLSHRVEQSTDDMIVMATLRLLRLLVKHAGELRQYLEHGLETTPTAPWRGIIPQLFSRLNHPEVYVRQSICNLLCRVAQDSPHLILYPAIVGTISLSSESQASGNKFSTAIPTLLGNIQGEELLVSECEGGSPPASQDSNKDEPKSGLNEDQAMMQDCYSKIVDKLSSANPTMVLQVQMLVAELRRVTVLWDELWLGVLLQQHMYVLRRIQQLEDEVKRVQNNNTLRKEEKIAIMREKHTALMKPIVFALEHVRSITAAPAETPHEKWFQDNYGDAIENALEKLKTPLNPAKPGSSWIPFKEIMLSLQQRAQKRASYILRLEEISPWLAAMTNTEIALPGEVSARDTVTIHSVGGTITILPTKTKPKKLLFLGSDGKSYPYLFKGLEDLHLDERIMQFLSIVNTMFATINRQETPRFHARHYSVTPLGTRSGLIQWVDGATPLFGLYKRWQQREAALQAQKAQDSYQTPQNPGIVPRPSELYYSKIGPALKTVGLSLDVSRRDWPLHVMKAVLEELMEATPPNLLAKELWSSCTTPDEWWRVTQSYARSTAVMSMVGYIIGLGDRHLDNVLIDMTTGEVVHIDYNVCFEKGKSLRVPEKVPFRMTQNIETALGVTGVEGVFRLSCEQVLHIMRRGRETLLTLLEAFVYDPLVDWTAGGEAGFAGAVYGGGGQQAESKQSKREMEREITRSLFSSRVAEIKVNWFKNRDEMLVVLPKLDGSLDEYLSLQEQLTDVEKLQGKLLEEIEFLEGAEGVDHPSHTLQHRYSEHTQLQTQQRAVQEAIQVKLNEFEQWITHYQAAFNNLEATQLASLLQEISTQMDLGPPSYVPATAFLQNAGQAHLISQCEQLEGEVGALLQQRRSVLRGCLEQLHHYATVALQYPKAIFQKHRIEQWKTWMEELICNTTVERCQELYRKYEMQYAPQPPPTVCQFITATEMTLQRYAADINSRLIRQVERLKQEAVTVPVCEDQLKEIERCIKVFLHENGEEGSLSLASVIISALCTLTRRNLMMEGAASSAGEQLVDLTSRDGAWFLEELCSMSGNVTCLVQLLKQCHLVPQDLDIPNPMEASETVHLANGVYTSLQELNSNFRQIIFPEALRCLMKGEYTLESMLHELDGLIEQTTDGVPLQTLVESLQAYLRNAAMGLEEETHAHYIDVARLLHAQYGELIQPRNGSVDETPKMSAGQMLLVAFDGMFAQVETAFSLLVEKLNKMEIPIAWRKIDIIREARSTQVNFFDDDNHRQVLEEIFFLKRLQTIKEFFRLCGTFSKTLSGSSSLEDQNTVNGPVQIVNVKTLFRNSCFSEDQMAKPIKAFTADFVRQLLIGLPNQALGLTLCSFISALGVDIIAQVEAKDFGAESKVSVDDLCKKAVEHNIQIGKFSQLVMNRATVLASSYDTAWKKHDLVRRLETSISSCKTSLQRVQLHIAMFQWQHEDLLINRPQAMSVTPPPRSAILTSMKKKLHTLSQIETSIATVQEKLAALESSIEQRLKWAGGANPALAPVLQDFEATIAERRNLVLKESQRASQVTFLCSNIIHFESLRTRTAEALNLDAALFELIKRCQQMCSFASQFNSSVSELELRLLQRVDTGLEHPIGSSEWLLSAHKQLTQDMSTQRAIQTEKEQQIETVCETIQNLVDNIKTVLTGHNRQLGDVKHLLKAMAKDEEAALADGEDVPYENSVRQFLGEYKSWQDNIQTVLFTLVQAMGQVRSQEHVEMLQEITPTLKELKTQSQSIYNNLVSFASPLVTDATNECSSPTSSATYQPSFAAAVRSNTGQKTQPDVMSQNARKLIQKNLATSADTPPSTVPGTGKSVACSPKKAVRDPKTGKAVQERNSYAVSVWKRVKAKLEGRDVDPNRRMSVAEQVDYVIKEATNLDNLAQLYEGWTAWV
# [14] = target: T4, Acylglycerol kinase, mitochondrial (Homo sapiens) (UniProt Q53H12); experiment: Inhibition of AGK ATP labeling site in human A-375 cells at 0.05 uM by KiNativ Profiling analysis relative to control; assay type: cell-based
# T4 sequence (whole entry): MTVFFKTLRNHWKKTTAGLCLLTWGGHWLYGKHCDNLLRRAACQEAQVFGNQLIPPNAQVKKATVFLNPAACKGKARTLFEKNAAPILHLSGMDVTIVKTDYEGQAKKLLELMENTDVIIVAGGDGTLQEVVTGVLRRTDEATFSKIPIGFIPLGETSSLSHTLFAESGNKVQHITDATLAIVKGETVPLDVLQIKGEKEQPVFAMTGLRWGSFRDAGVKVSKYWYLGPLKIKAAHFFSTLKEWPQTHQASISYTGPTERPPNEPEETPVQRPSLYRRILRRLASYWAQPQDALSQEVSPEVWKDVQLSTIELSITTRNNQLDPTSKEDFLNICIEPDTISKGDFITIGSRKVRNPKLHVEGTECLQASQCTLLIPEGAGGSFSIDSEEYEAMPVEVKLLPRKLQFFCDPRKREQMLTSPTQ
# [15] = target: Serine/threonine-protein kinase MRCK beta (Homo sapiens) (UniProt Q9Y5S2); experiment: Inhibition of MRCKb in human A-375 cells at 5 uM by KiNativ Profiling analysis relative to control; assay type: cell-based
# [16] = target: Ephrin type-A receptor 5 (Homo sapiens) (UniProt P54756); experiment: Inhibition of EPHA5 (unknown origin) at 1 uM by Ambit Kinomescan binding assay relative to control
# Sequence of Ephrin type-A receptor 5 (Homo sapiens) (P54756 whole entry): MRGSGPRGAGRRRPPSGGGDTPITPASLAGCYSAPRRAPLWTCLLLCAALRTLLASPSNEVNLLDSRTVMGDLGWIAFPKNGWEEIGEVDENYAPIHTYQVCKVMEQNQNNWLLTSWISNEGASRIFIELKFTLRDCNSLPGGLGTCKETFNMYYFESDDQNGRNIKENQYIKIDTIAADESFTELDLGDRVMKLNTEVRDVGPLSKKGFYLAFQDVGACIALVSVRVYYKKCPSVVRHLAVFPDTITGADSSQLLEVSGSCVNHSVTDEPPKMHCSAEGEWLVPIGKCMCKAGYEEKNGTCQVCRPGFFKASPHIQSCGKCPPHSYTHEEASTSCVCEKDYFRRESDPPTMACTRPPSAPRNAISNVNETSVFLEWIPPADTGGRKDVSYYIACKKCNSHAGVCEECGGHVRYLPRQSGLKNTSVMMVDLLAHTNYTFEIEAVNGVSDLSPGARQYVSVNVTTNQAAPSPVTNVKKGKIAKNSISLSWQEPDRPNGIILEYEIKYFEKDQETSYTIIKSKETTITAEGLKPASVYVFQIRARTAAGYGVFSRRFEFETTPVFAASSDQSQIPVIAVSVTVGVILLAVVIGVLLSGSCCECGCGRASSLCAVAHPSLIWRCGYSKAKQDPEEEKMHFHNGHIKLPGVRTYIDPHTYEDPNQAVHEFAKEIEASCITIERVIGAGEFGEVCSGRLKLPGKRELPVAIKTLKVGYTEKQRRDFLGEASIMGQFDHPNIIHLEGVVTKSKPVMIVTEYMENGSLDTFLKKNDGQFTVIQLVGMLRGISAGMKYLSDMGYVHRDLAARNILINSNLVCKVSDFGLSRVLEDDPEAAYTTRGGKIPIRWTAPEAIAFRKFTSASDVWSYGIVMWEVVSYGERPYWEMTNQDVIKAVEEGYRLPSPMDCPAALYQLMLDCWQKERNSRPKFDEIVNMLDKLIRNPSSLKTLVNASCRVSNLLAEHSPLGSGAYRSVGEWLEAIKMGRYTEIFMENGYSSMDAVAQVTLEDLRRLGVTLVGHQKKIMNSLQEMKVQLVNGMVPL
compound,measurement,setting,value
CCN1CCN(Cc2ccc(NC(=O)c3ccc(C)c(Oc4ccnc5[nH]ccc45)c3)cc2C(F)(F)F)CC1,inhibition,[1],inactive
same,inhibition at 10 µM,[2],-5.1%
same,inhibition,[3],17.8%
same,inhibition,[4],-7.1%
same,inhibition,[5],8%
same,inhibition,[6],inactive
same,inhibition,[7],5.2%
CNc1cc(Oc2cc(C(=O)Nc3cc(N4CCN(C)CC4)cc(C(F)(F)F)c3)ccc2C)ncn1,inhibition at 1 µM,[8],-44.2%
same,inhibition,[9],11.3%
same,inhibition,[10],-5.7%
same,inhibition,[11],-6.5%
same,inhibition,[12],-1.3%
CCN1CCN(Cc2ccc(NC(=O)c3ccc(C)c(/C=C/c4cnc5[nH]ccc5c4OC)c3)cc2C(F)(F)F)CC1,inhibition,[13],24.4%
same,inhibition,[14],16.8%
same,inhibition,[15],8.4%
same,inhibition,[16],21%

# Reference: ChEMBL document CHEMBL5696442, “Discovery of type II inhibitors of TGFβ-activated kinase 1 (TAK1) and mitogen-activated protein kinase kinase kinase kinase 2 (MAP4K2)” (J Med Chem, 2015)
